Source: a melting point compilation (Tetko et al.; mined from patent text by program, amines drawn as free bases though some values may be those of a salt)

| melting point [°C] | Compound |
| --- | --- |
| 177 to 178 | Cc1nc2c(OCc3c(N)cccc3Cl)cccn2c1Br |
| 137 to 138 | Cc1nnc(-c2ccc3occ(-c4cnn(Cc5cccnc5)c4)c3c2)o1 |
| 205 to 209 | CCOCc1nc2c(N)nc3cc(OCCCCCCNC(=O)NC(C)C)ccc3c2n1CC(C)(C)NC(=O)NC(C)C |
| 98 to 100 | FC(F)(F)c1ccn(-c2cc(-c3ccc4c(c3)OCO4)nc3ccccc23)n1 |
| 147 to 158 | CN1C(=O)NC(=O)C1=Cc1cc(OCCCS(=O)(=O)c2ccccc2)ccc1[N+](=O)[O-] |
| 193 to 194 | O=C(O)c1ccc(OCCCON=Cc2cn(Cc3ccccc3)c3ccccc23)c(-c2ccc(C(F)(F)F)cc2)c1 |
| 80 to 82 | COc1ccc(-c2cc(C)c(N)c(CO)c2)cn1 |
| 126 to 127 | CS(=O)(=O)c1ccc(-c2cnn(-c3ccc(F)c(F)c3)c(=O)c2OCCC2C=CCC2)cc1 (stereo unspecified) |
| 170 to 173 | Fc1cc(CBr)ccc1-c1nc2ccccc2o1 |
| 96 | Cc1cc(NC(=O)C(F)(c2ccccc2)c2nnn(CCCCCCCCCCCC(F)F)n2)c(C)c(C)c1O (stereo unspecified) |
| 97 to 98 | COC(=O)c1cc(OCc2cccc(Cl)c2)ccc1OCCCC#N |
| 141 to 142 | CC(=O)c1sc(N2CCN(Cc3ccc(C(F)(F)F)cc3)C2=O)nc1C |
| 108 to 110 | COc1ccc(CCc2ccncc2N)cc1OC1CCCC1 |
| 79 to 81 | Cc1cc(-c2noc(C(F)(F)F)n2)cc(C)c1OCCCc1ccc(CCl)nc1 |
| 231 to 232 | O=C1N(Cc2ccc(NC=NO)nc2)c2ccccc2C12COc1cc3c(cc12)OCCO3 (stereo unspecified) |
| 91 to 93 | Nc1ncccc1NCc1ccc(OCc2cccc(F)c2)cc1 |
| 160 to 161 | CCCc1c(OCc2ccc(CSc3nnn[nH]3)cc2)ccc(C(C)=O)c1O |
| 117 to 118 | CC(=O)c1ccc(OCc2cccc([N+](=O)[O-])c2)cc1O |
| 140 to 142 | COC(=O)CCC(=O)c1ccc(-c2ccc(C(F)(F)F)cc2)cc1 |
| 121 to 124 | N#CC(Cc1c[nH]cn1)(c1ccccc1)c1ccc(Br)cc1 (stereo unspecified) |

| melting point [°C] | Compound |
| --- | --- |
| 101 to 104 | CCCCCCCc1ccc(C(=O)CCC(=O)O)cc1 |
| > 300 | CNC(=O)Nc1cccc2c1C(=O)c1c-2n[nH]c1-c1ccc(OC)cc1 |
| 230 to 234 | NC(=O)c1ncn2c(-c3cc(Cl)ccc3Cl)ccnc12 |
| 96.5 to 97.5 | CCOC(=O)N1CCN(C2=Nc3ccccc3Sc3ccc(Cl)cc32)CC1 |
| 152 to 153 | Cc1oc(-c2ccco2)nc1COc1ccc(CCCC2OC(=O)NC2=O)cc1O (stereo unspecified) |
| 54 to 56 | CC1CC(=O)NN=C1c1ccc(NC(=O)CCNCC(O)COc2ccc(CCOCC3CC3)cc2)cc1 (stereo unspecified) |
| 63 to 64 | OCCCc1nc(COc2ccc(CCCn3ccnc3)cc2)co1 |
| 162 to 165 | Cc1cccc(NC(c2ccc(F)c(F)c2)c2ccc3cccnc3c2O)n1 (stereo unspecified) |
| 174 to 175 | COCOc1ccc(Cl)cc1-c1cc(-c2cccc(N)c2)c(C#N)c(NC(=O)c2ccccc2)n1 |
| 188 | O=C1c2ccccc2C(=O)N1CCCS(=O)(=O)c1ccc(Cl)cc1 |
| 71 to 72 | CCOC(=O)CC(O)Cc1ccc([N+](=O)[O-])cc1 (stereo unspecified) |
| 172 to 175 | O=C1SC(CCCC#Cc2ccc(Cl)cc2)(S(=O)(=O)c2ccc(I)cc2)C(=O)N1Cc1ccc([N+](=O)[O-])cc1 (stereo unspecified) |
| 100 to 103 | OC(Cn1cncn1)(Cn1cnc(Cc2ccc(F)cc2)n1)c1ccccc1C(F)(F)F (stereo unspecified) |
| 109 to 112 | Cc1ccccc1OCC(O)CN(CCOc1ncccc1C(N)=O)Cc1ccccc1 (stereo unspecified) |
| 173 to 174 | CCOC(=O)c1ccc(-c2cnc3c(c2)N(Cc2cc(F)ccc2F)CCN3)cc1 |
| 161 to 165 | Cc1cccc(S(=O)(=O)n2c(CCC(=O)O)cc3cc(Cl)ccc32)c1 |
| 178 to 180 | CCCCC(=O)NCCc1ccc(S(=O)(=O)NC(=O)c2ccc(C(=O)OC)nc2)cc1 |
| 97 to 102 | CCOC(=O)CSc1nc(Cl)cc(Nc2ccc(F)cc2)n1 |
| 163 to 166 | COc1cc(N2CCN(C[C@H](C)O)CC2)ccc1Nc1ncc2ccc(-c3cc(Cl)ccc3OC)n2n1 |

Continued, compound first:

| Compound | melting point [°C] |
| --- | --- |
| COC(=O)c1nc(C2CCCCC2)[nH]c1-c1ccc(C)cc1 | 210 to 213 |
| Nc1nc2c(ncn2C2C=CC(CO)O2)c(=O)[nH]1 (stereo unspecified) | > 250 |
| O=S(=O)(Nc1cccc2c(Cl)c[nH]c12)c1cccc(Cl)c1 | 180 to 181 |
| CNC(=O)Oc1cccc(NC(=O)C=C(C)OC)c1 | 175 |
| S=c1[nH]ccn1C1CCc2ccccc2C1 (stereo unspecified) | 233 to 234 |
| O=C(O)c1cc2c(c([N+](=O)[O-])c1)OC(C(Cl)(Cl)Cl)OC2C(Cl)(Cl)Cl (stereo unspecified) | 211 to 212 |
| CCCn1c(-c2ccc(C#C[Si](C(C)C)(C(C)C)C(C)C)cc2)nc2cc(C#N)c(C#N)cc21 | 242 to 243 |
| Cc1cc(C(=O)O)ccc1-c1cnc2[nH]c(=O)n(CC3CCCCC3)c2n1 | 244 to 247 |
| CCOC(=O)C1=C(C2CC2)Nc2n[nH]cc2C1c1cccc(C#N)c1Br (stereo unspecified) | 168 to 170 |
| CC(=O)c1ccc(-c2cc(N3CCCCC3)c(C#N)c3c2-c2ccccc2C3)cc1 | 182 to 184 |
| O=C1Nc2cccnc2N(C(=O)CN2CCN(CCN3CCOCC3)CC2)c2ccccc21 | 227 to 229 |
| COC1CC2C3CCC4=CC(=O)CCC4(C)C3(F)C(O)CC2(C)C1(OC(C)=O)C(=O)CCl (stereo unspecified) | 243 to 245 |
| Cc1nc(-c2ccc(C(C)(C)C)cc2)sc1C(=O)O | 190 to 193 |
| O=C(O)CN(CC(=O)O)c1cccc(N(CC(=O)O)CC(=O)O)c1 | 188 |
| OC1CCCCC1c1ncc[nH]1 (stereo unspecified) | 133 to 134 |
| Clc1cc2c(cc1Cl)Nc1cscc1CN2 | 195 to 197 |
| CN(N)C(=O)c1ccc(O)c(O)c1 | 202 to 205 |
| CCOC(=O)CNC(=O)n1nc(Oc2cccc(C(F)(F)F)c2)cc1C | 66 to 68 |
| O=C1[C@@H]2Cc3ccccc3CN2C(=O)N1c1cc(Cl)cc(Cl)c1 | 243 |

| Compound | melting point [°C] |
| --- | --- |
| N#Cc1nn(-c2c(Cl)cc(SC(F)(F)F)cc2Cl)c(N)c1I | 172 to 174 |
| CC(C)Nc1cccnc1N1CCN(C(=O)c2ccc(C(=O)Nc3nncs3)cn2)CC1 | 260 to 262 |
| CC(=O)c1ccc(S(=O)(=O)Nc2cc(C)on2)cc1 | 189 to 190 |
| CC(C)c1cc(C(O)(C(F)(F)F)C(F)(F)F)cc(C(C)C)c1NCC(=O)O | 130 to 132 |
| NC(=O)c1nnn(Cc2cccc(Cl)c2Cl)c1N | 224 to 226 |
| COc1cc2c(cc1OC)-c1c(C)nc(Nc3c(C)cccc3C)n1CC2 | 234 to 236 |
| COc1ccc2c3cc(C(=O)NCCc4ccc(Cl)cc4)ccc3n(CC3CCCCC3)c2c1 | 179 to 181 |
| CC(C)N(C)C(=O)COCCCCCCCC[C@H]1C[C@]2(C)[C@@H](O)CC[C@H]2[C@@H]2CCc3cc(O)ccc3[C@@H]12 | 126 |
| CC1Cc2cc3c(cc2C(c2ccc([N+](=O)[O-])cc2)=NN1C1=NC(=O)CS1)OCO3 (stereo unspecified) | 218 to 220 |
| COc1ccc(C(=O)CN2CCNC2=O)cc1OC | 167 |
| CN(C)Cc1sc(C(c2ccc(Cl)cc2)c2c(Cl)cc(-n3ncc(=O)[nH]c3=O)cc2Cl)nc1-c1ccccc1F (stereo unspecified) | 250 |
| Cc1c(C)c2c(c(C)c1NC(=O)c1ccc(F)cc1)C(c1ccc(F)cc1)C(C)(C)O2 (stereo unspecified) | 140 to 142 |
| O=CNc1csc(Cl)n1 | 138 |
| CCOC(=O)c1cc2cc(OCCCOC)cc(N)c2[nH]1 | 139 to 140 |
| Nc1ccc(Sc2cccc3c2C(=O)c2cccc(Sc4ccc(N)cc4)c2C3=O)cc1 | 364 to 365 |
| Brc1c(NC2=NCCN2)ccc2ncn(CC3CCCCC3)c12 | 153 to 155 |
| CCOC(=O)N1CCC(n2cnc3ccc(-c4nnc(C)o4)cc32)CC1 | 179 to 180 |
| CC(C)c1ccccc1NC(=O)c1ccccc1C(c1ccc(O)cc1)c1ccc(O)cc1 | 225 to 227 |
| NS(=O)(=O)c1cc(Cl)c(Cl)cc1OC(F)(F)F | 181 to 185 |

| Compound | melting point [°C] |
| --- | --- |
| CC(C)(C)OC(=O)N1CCc2c(n(CCOc3ccccc3)c3cc(Cl)c(Cl)cc23)CC1 | 136 to 138 |
| CC(C)(c1ccccc1)c1cccc(S(=O)(=O)Cl)c1 | 47.5 to 49 |
| COc1c(C)cccc1CC(N)(CF)C(N)=O (stereo unspecified) | 118 |
| O=C(NC1CCN(c2ccccc2)C1)c1ccc([N+](=O)[O-])cc1 (stereo unspecified) | 153 to 155 |
| CC(=O)OC(C)c1ccc(C=C(C)c2ccc3c(c2)C(C)(C)CCC3(C)C)cc1 (stereo unspecified) | 85 to 86 |
| COC(=O)c1cc(-c2ccc3cc4c(cc3c2)C(C)(C)CCC4(C)C)c[nH]1 | 140 to 143 |
| N#Cc1c2[nH]c(C(=O)O)cc(=O)c2cc2c(=O)cc(C(=O)O)[nH]c12 | > 320 |
| COC(=O)c1cc(C)nn1-c1ncc(Cl)cc1Cl | 97 to 98 |
| Cc1cc(CNc2cccc(C(=O)O)c2C(=O)O)oc1C | 127 to 129 |
| C[C@H](OC(c1ccccc1)(c1ccccc1)c1ccccc1)C(=O)O | 100 to 106 |
| N#Cc1cccnc1N1CCc2ccccc2CC1 | 110 to 112 |
| COc1ccc(/C=C/S(=O)(=O)CS(=O)(=O)/C=C/c2ccc(O)c(OC)c2)cc1O | 148 to 150 |
| CC#CNC(=O)NC(=NC(=O)N(C)C)SC | 88 to 91 |
| NC(=O)c1[nH]c2ccccc2c1-c1ccc(NS(=O)(=O)c2cccc(Cl)c2Cl)cc1 | > 260 |
| CCOc1cc(C=C2SC(=S)N(N(C)C)C2=O)ccc1O | 194 to 198 |
| CNC(=O)[C@H]1O[C@@H]1c1ccc(C)cc1 | 152 to 153 |
| COc1cc2c(cc1OC)[C@@H]1CN(C)CC[C@@H]1N=C2c1ccc(NC(=O)C(C)(C)C)cc1 (relative stereo) | 245 |
| CCCOc1ccc(S(=O)(=O)N2CCN(CCOC(=O)OCC)CC2)cc1-c1nc2c(CCC)cn(CC)c2c(=O)[nH]1 | 135 to 136 |
| N#CN1CCC(=C2c3ccccc3CCc3ccncc32)CC1 | 212 to 214 |
